Laboratory results: the supplement of paper PMC13380429

How the values were obtained:
Conditions in all cases: 72 h
Calu-3 [1] = test: cell viability relative to DMSO; higher = less toxic
U2OS [2] = test: as above
Vero E6 [3] = test: as above
Caco-2 [4] = test: as above
HepG2 [5] = test: as above
Calu-3 [6] = test: drug sensitivity score (DSS) for viability; higher = more toxic; extreme values may be limits of the assay
U2OS [7] = test: as above
Vero E6 [8] = test: as above
Caco-2 [9] = test: as above
HepG2 [10] = test: as above
Calu-3 [11] = test: relative viability EC50 (midpoint between 100% and the lowest measured viability); higher = less toxic
U2OS [12] = test: as above
Vero E6 [13] = test: as above
Caco-2 [14] = test: as above
HepG2 [15] = test: as above

SMILES | cell viability (Calu-3 [1]; 1 nM) [%] | cell viability (Calu-3 [1]; 10 nM) [%] | cell viability (Calu-3 [1]; 100 nM) [%] | cell viability (Calu-3 [1]; 1000 nM) [%] | cell viability (Calu-3 [1]; 10000 nM) [%] | cell viability (U2OS [2]; 1 nM) [%] | cell viability (U2OS [2]; 10 nM) [%] | cell viability (U2OS [2]; 100 nM) [%] | cell viability (U2OS [2]; 1000 nM) [%] | cell viability (U2OS [2]; 10000 nM) [%] | cell viability (Vero E6 [3]; 1 nM) [%] | cell viability (Vero E6 [3]; 10 nM) [%] | cell viability (Vero E6 [3]; 100 nM) [%] | cell viability (Vero E6 [3]; 1000 nM) [%] | cell viability (Vero E6 [3]; 10000 nM) [%] | cell viability (Caco-2 [4]; 1 nM) [%] | cell viability (Caco-2 [4]; 10 nM) [%] | cell viability (Caco-2 [4]; 100 nM) [%] | cell viability (Caco-2 [4]; 1000 nM) [%] | cell viability (Caco-2 [4]; 10000 nM) [%] | cell viability (HepG2 [5]; 1 nM) [%] | cell viability (HepG2 [5]; 10 nM) [%] | cell viability (HepG2 [5]; 100 nM) [%] | cell viability (HepG2 [5]; 1000 nM) [%] | cell viability (HepG2 [5]; 10000 nM) [%] | drug sensitivity score (Calu-3 [6]) | drug sensitivity score (U2OS [7]) | drug sensitivity score (Vero E6 [8]) | drug sensitivity score (Caco-2 [9]) | drug sensitivity score (HepG2 [10]) | relative viability EC50 (Calu-3 [11]) [µM] | relative viability EC50 (U2OS [12]) [µM] | relative viability EC50 (Vero E6 [13]) [µM] | relative viability EC50 (Caco-2 [14]) [µM] | relative viability EC50 (HepG2 [15]) [µM]
CS(=O)(=O)Nc1ccc(Cc2noc(-c3ccc4[nH]cc(CCN)c4c3)n2)cc1 | 104 | 101 | 102 | 90.2 | 103 | 98.6 | 96.9 | 102 | 99.1 | 98.8 | 98.3 | 105 | 100 | 101 | 106 | 97.9 | 101 | 105 | 98.5 | 104 | 93.8 | 116 | 91.2 | 95.8 | 98 | 0 | 0 | 0 | 0 | 0 | > 10 | > 10 | > 10 | > 10 | > 10
CC[C@H](C)[C@@H]1NC(=O)[C@H](Cc2ccc(OC)cc2)NC(=O)CCCSC[C@@H](C(=O)N2CCC[C@H]2C(=O)N[C@@H](CC(C)C)C(=O)NCC(N)=O)NC(=O)[C@H](CC(N)=O)NC(=O)[C@H](CCC(N)=O)NC1=O [carbetocin] | 103 | 104 | 102 | 106 | 75.7 | 94.9 | 91.3 | 98.4 | 95.2 | 100 | 104 | 104 | 99.3 | 101 | 95.8 | 99.7 | 98.6 | 97.3 | 90.5 | 87.4 | 103 | 103 | 91.3 | 99.7 | 93.3 | 0.6 | 0 | 0 | 0.3 | 0 | > 10 | > 10 | > 10 | > 10 | > 10
CC(=O)NCCc1c[nH]c2ccccc12 [N-acetyltryptamine] | 92.8 | 96 | 94.3 | 105 | 99.4 | 95.4 | 102 | 94.5 | 99.3 | 101 | 97 | 92.4 | 99 | 91.4 | 107 | 93.5 | 94.7 | 99.4 | 96.5 | 102 | 105 | 95.7 | 97.1 | 103 | 104 | 0 | 0 | 0 | 0 | 0 | > 10 | > 10 | > 10 | > 10 | > 10
C[C@@H](O[C@H]1OCCN(Cc2n[nH]c(=O)[nH]2)[C@H]1c1ccc(F)cc1)c1cc(C(F)(F)F)cc(C(F)(F)F)c1 [aprepitant] | 90.9 | 105 | 103 | 97.7 | 97.1 | 99.5 | 103 | 95.3 | 102 | 88.4 | 97.4 | 104 | 98.8 | 103 | 103 | 100 | 107 | 100 | 105 | 89.2 | 102 | 103 | 106 | 109 | 95.3 | 0 | 0 | 0 | 0 | 0 | > 10 | > 10 | > 10 | > 10 | > 10
Nc1nc(OCc2ccccc2)c2nc[nH]c2n1 [O6-benzylguanine] | 103 | 89.5 | 107 | 88.1 | 105 | 101 | 99.9 | 100 | 97.3 | 104 | 93.6 | 108 | 87.3 | 103 | 90.4 | 105 | 95.2 | 98 | 98.7 | 106 | 95.9 | 105 | 96.8 | 108 | 94.6 | 0 | 0 | 0 | 0 | 0 | > 10 | > 10 | > 10 | > 10 | > 10
CC(C)(C)c1cc(C=C(C#N)C#N)cc(C(C)(C)C)c1O [tyrphostin-A9] | 97.4 | 96.3 | 99 | 92.8 | 44.1 | 106 | 97.9 | 100 | 90.6 | 22.4 | 100 | 106 | 97.8 | 97.2 | 17.5 | 96.5 | 98.3 | 95.8 | 70.1 | 20.5 | 104 | 101 | 98.7 | 74.3 | 8.9 | 4.2 | 5.9 | 5 | 8.1 | 8.9 | 2.12 | 2.18 | 2.91 | 1.29 | 1.45
Cc1cccc(Nc2cc(Cl)nc(SCC(=O)O)n2)c1C [pirinixic-acid] | 99.9 | 102 | 93.7 | 114 | 97.4 | 103 | 104 | 95.7 | 102 | 97.1 | 100 | 95.3 | 98.8 | 95.9 | 100 | 90 | 95.2 | 98.8 | 98.1 | 87.2 | 98.8 | 99.4 | 94.8 | 99.2 | 101 | 0 | 0 | 0 | 0 | 0 | > 10 | > 10 | > 10 | > 10 | > 10
CN1CC[C@@]2(C)c3cc(O)ccc3N(C)[C@@H]12 [eseroline-(-)] | 101 | 101 | 99.1 | 112 | 84.6 | 106 | 105 | 99.1 | 101 | 96.4 | 96.3 | 97.9 | 96.1 | 94.2 | 96 | 103 | 97.9 | 105 | 89.6 | 77.5 | 98.2 | 103 | 110 | 109 | 83.7 | 0.1 | 0 | 0 | 1.9 | 0.2 | > 10 | > 10 | > 10 | > 10 | > 10
CCS(=O)(=O)N1CCC([C@@H](C)n2c(C)c(C(=O)NCc3c(OC)cc(C)[nH]c3=O)c3ccccc32)CC1 [CPI-169] | 97.3 | 102 | 98.7 | 94.3 | 97.4 | 92.1 | 101 | 99.3 | 105 | 102 | 100 | 96.7 | 96.9 | 99.7 | 103 | 95.8 | 94.7 | 101 | 100 | 95 | 104 | 103 | 104 | 94.3 | 101 | 0 | 0 | 0 | 0 | 0 | > 10 | > 10 | > 10 | > 10 | > 10
CCc1cc(C(N)=S)ccn1 [ethionamide] | 90.8 | 92.2 | 98.7 | 93 | 95.7 | 97.8 | 94 | 97.1 | 94.7 | 96.3 | 96.7 | 101 | 101 | 91.5 | 99.7 | 95.7 | 92.7 | 96.5 | 92.6 | 102 | 100 | 90.6 | 97.9 | 102 | 102 | 0 | 0 | 0 | 0 | 0 | > 10 | > 10 | > 10 | > 10 | > 10
C[C@@H]1CCN(C(=O)CC#N)C[C@@H]1N(C)c1ncnc2[nH]ccc12 | 96.3 | 97.5 | 106 | 112 | 110 | 101 | 103 | 101 | 103 | 96.9 | 98.6 | 94.8 | 97 | 98.3 | 96.1 | 102 | 103 | 94.4 | 96.9 | 104 | 111 | 94.4 | 105 | 97.7 | 108 | 0 | 0 | 0 | 0 | 0 | > 10 | > 10 | > 10 | > 10 | > 10
N#Cc1ccc(N(Cc2ccc(Br)cc2)n2cnnc2)cc1 [YM-511] | 95.9 | 97.8 | 92.4 | 97.4 | 99.3 | 104 | 96.4 | 103 | 98.4 | 101 | 103 | 98 | 100 | 106 | 96.6 | 108 | 92 | 94.1 | 92 | 88.3 | 104 | 102 | 99.8 | 96.6 | 98 | 0 | 0 | 0 | 0.2 | 0 | > 10 | > 10 | > 10 | > 10 | > 10
Cc1nn(C)c2c1C(c1ccc(C(F)(F)F)cc1)C(C#N)=C(N)O2 (stereo not given) [BQU57] | 98.7 | 104 | 98.7 | 108 | 104 | 98 | 101 | 98.8 | 100 | 102 | 104 | 104 | 103 | 101 | 99.7 | 94.3 | 93.5 | 95 | 97.1 | 89.2 | 109 | 97.9 | 103 | 99 | 102 | 0 | 0 | 0 | 0 | 0 | > 10 | > 10 | > 10 | > 10 | > 10
CC1(C)CCC2=C(O1)c1ccccc1C(=O)C2=O [beta-lapachone] | 109 | 91.4 | 110 | 106 | 91.2 | 106 | 100 | 101 | 96.5 | 21.5 | 104 | 105 | 101 | 102 | 91.6 | 101 | 96.5 | 91.9 | 96.3 | 29.9 | 107 | 99.3 | 94.4 | 99.5 | 7.5 | 0 | 4.8 | 0 | 4.4 | 5.2 | > 10 | 2.83 | > 10 | 2.75 | 3.12
